Laboratory results from US12077503B2, “Substituted cyclic amides and their use as herbicides” (FMC CORPORATION, priority 2015, dated 2024).
Where two headings read alike, the source gives them in different places.

How the values were obtained:
Format in all cases: in vivo
[1] = system: ryegrass, Italian (Italian ryegrass, Lolium multiflorum); experiment: Test A preemergence; conditions: Lolium multiflorum, pre-emergence, 240 h; for pest or weed control at 125 g/ha: 125 g ai/ha; for pest or weed control at 500 g/ha: 500 g ai/ha, visual injury rating about 10 d after treatment, 0 to 100 scale (0 no effect, 100 complete control)
Summary of the method: (§1)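 Preemergence directed soil spray on seeded pots, or postemergence application to plants 2–10 cm, one- to two-leaf. Solvent mixture non-phytotoxic, with surfactant. Scored ~10 d later, visually, 0–100 vs untreated.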

[2] = system: ragweed (common ragweed, Ambrosia elatior); experiment: Test A preemergence; conditions: Ambrosia artemisiifolia, pre-emergence, 240 h; for pest or weed control at 125 g/ha: 125 g ai/ha; for pest or weed control at 500 g/ha: 500 g ai/ha, visual injury rating about 10 d after treatment, 0 to 100 scale (0 no effect, 100 complete control)
Summary of the method: as §1

Kochia (Kochia scoparia) [3] = experiment: Test A preemergence; conditions: Bassia scoparia, pre-emergence, 240 h; for pest or weed control at 125 g/ha: 125 g ai/ha; for pest or weed control at 500 g/ha: 500 g ai/ha, visual injury rating about 10 d after treatment, 0 to 100 scale (0 no effect, 100 complete control)
Summary of the method: as §1

[4] = system: giant foxtail (Setaria faberii); experiment: Test A preemergence; conditions: Setaria faberi, pre-emergence, 240 h; for pest or weed control at 125 g/ha: 125 g ai/ha; for pest or weed control at 500 g/ha: 500 g ai/ha, visual injury rating about 10 d after treatment, 0 to 100 scale (0 no effect, 100 complete control)
Summary of the method: as §1

[5] = system: pigweed (Amaranthus retroflexus); experiment: Test A preemergence; conditions: Amaranthus retroflexus, pre-emergence, 240 h; for pest or weed control at 125 g/ha: 125 g ai/ha; for pest or weed control at 500 g/ha: 500 g ai/ha, visual injury rating about 10 d after treatment, 0 to 100 scale (0 no effect, 100 complete control)
[6] = system: barnyardgrass (Echinochloa crus-galli); experiment: Test A preemergence; conditions: Echinochloa crus-galli, pre-emergence, 240 h; for pest or weed control at 125 g/ha: 125 g ai/ha; for pest or weed control at 500 g/ha: 500 g ai/ha, visual injury rating about 10 d after treatment, 0 to 100 scale (0 no effect, 100 complete control)
Summary of the method: as §1

[7] = system: ryegrass, Italian (Italian ryegrass, Lolium multiflorum); experiment: Test A postemergence; conditions: Lolium multiflorum, post-emergence, 240 h, postemergence, read-out: Ryegrass, Italian plant response rating; for pest or weed control at 125 g/ha: 125 g ai/ha, visual injury on 0 to 100 scale (0 no effect, 100 complete control), approx. 10 d; for pest or weed control at 500 g/ha: 500 g ai/ha, 0 to 100 scale, 0 is no effect, 100 is complete control
Summary of the method: as §1

[8] = system: ragweed (common ragweed, Ambrosia elatior); experiment: Test A postemergence; conditions: Ambrosia artemisiifolia, post-emergence, 240 h, postemergence, read-out: Ragweed plant response rating; for pest or weed control at 125 g/ha: 125 g ai/ha, visual injury on 0 to 100 scale (0 no effect, 100 complete control), approx. 10 d; for pest or weed control at 500 g/ha: 500 g ai/ha, 0 to 100 scale, 0 is no effect, 100 is complete control
Summary of the method: as §1

[9] = system: Galium (catchweed bedstraw, Galium aparine); experiment: Test A postemergence; conditions: Galium, post-emergence, 240 h, postemergence; for pest or weed control at 125 g/ha: 125 g ai/ha, visual injury on 0 to 100 scale (0 no effect, 100 complete control); for pest or weed control at 500 g/ha: 500 g ai/ha
Summary of the method: as §1

Kochia (Kochia scoparia) [10] = experiment: Test A postemergence; conditions: Bassia scoparia, post-emergence, 240 h, postemergence; for pest or weed control at 125 g/ha: 125 g ai/ha, visual injury on 0 to 100 scale (0 no effect, 100 complete control); for pest or weed control at 500 g/ha: 500 g ai/ha
Summary of the method: as §1

[11] = system: wheat (Triticum aestivum); experiment: Test A postemergence; conditions: Triticum aestivum, post-emergence, 240 h, postemergence, read-out: Wheat plant response rating; for plant injury at 125 g/ha: 125 g ai/ha, visual injury on 0 to 100 scale (0 no effect, 100 complete control), approx. 10 d; for plant injury at 500 g/ha: 500 g ai/ha, 0 to 100 scale, 0 is no effect, 100 is complete control
Summary of the method: as §1

[12] = system: sedge, umbrella (small-flower umbrella sedge, Cyperus difformis); experiment: Test B flooded paddy test; conditions: Cyperus difformis, 250 g ai/ha, Flood; 0 to 100 scale where 0 is no effect and 100 is complete control; read-out: Sedge, Umbrella plant response rating
Summary of the method: (§2)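 Flooding to 3 cm over soil accompanied treatment, which consisted of adding compound to the standing water around 2-leaf plants; depth was then maintained. Visual assessment versus controls followed at 13 to 15 d (scale 0–100, 0 meaning no effect).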

rice (Oryra sativa) = experiment: Test B flooded paddy test; conditions: Oryza sativa, 250 g ai/ha, Flood; 0 to 100 scale where 0 is no effect and 100 is complete control; read-out: Rice plant response rating
Summary of the method: as §2

[13] = system: ducksalad (Heteranthera limosa); experiment: Test B flooded paddy test; conditions: Heteranthera limosa, 250 g ai/ha, Flood; 0 to 100 scale where 0 is no effect and 100 is complete control; read-out: Ducksalad plant response rating
Summary of the method: as §2

[14] = system: barnyardgrass (Echinochloa crus-galli); experiment: Test B flooded paddy test; conditions: Echinochloa crus-galli, 250 g ai/ha, Flood; 0 to 100 scale where 0 is no effect and 100 is complete control; read-out: Barnyardgrass plant response rating
Summary of the method: as §2

[15] = preemergence, read-out: Ryegrass, Italian plant response rating
[16] = preemergence, read-out: Ragweed plant response rating
[17] = preemergence, read-out: Kochia plant response rating
[18] = preemergence, read-out: Foxtail, Giant plant response rating
[19] = preemergence, read-out: Pigweed plant response rating
[20] = preemergence, read-out: Barnyardgrass plant response rating
[21] = approx. 10 d, read-out: Galium plant response rating
[22] = approx. 10 d, read-out: Kochia plant response rating
[23] = preemergence, 0 to 100 scale where 0 is no effect and 100 is complete control, approx. 10 d, read-out: Ryegrass, Italian plant response rating
[24] = preemergence, 0 to 100 scale where 0 is no effect and 100 is complete control, approx. 10 d, read-out: Ragweed plant response rating
[25] = preemergence, 0 to 100 scale where 0 is no effect and 100 is complete control, approx. 10 d, read-out: Kochia plant response rating
[26] = preemergence, 0 to 100 scale where 0 is no effect and 100 is complete control, approx. 10 d, read-out: Foxtail, Giant plant response rating
[27] = preemergence, 0 to 100 scale where 0 is no effect and 100 is complete control, approx. 10 d, read-out: Pigweed plant response rating
[28] = preemergence, 0 to 100 scale where 0 is no effect and 100 is complete control, approx. 10 d, read-out: Barnyardgrass plant response rating
[29] = 0 to 100 scale, 0 is no effect, 100 is complete control, read-out: Kochia plant response rating

Row | SMILES | pest or weed control at 500 g/ha [1, 15] | pest or weed control at 500 g/ha [2, 16] | pest or weed control at 500 g/ha (Kochia (Kochia scoparia) [3]; [17]) | pest or weed control at 500 g/ha [4, 18] | pest or weed control at 500 g/ha [5, 19] | pest or weed control at 500 g/ha [6, 20] | pest or weed control at 125 g/ha [7] | pest or weed control at 125 g/ha [8] | pest or weed control at 125 g/ha [9, 21] | pest or weed control at 125 g/ha (Kochia (Kochia scoparia) [10]; [22]) | plant injury at 125 g/ha [11] | pest or weed control at 250 g/ha [12] | pest or weed control at 250 g/ha (rice (Oryra sativa)) | pest or weed control at 250 g/ha [13] | pest or weed control at 250 g/ha [14] | pest or weed control at 125 g/ha [1, 23] | pest or weed control at 125 g/ha [2, 24] | pest or weed control at 125 g/ha (Kochia (Kochia scoparia) [3]; [25]) | pest or weed control at 125 g/ha [4, 26] | pest or weed control at 125 g/ha [5, 27] | also measured
1 | O=C(Nc1ccccc1F)[C@H]1C(=S)NC[C@@H]1c1ccc(C(F)(F)F)cc1 (racemic) [Compound 1047] | 0% | 60% | 80% | 80% | 20% | 80% | 0% | 0% | 0% | 0% | 0% | 0% | 0% | 0% | 0% |  |  |  |  |  | pest or weed control at 125 g/ha ([1]; Preemergence, visual injury rating after approximately 10 d, read-out: Ryegrass, Italian plant response rating (0 to 100 scale, 0 is no effect, 100 is complete control)): 0%; pest or weed control at 125 g/ha ([2]; Preemergence, visual injury rating after approximately 10 d, read-out: Ragweed plant response rating (0 to 100 scale, 0 is no effect, 100 is complete control)): 40%; pest or weed control at 125 g/ha (Kochia (Kochia scoparia) [3]; Preemergence, visual injury rating after approximately 10 d, read-out: Kochia plant response rating (0 to 100 scale, 0 is no effect, 100 is complete control)): 60%; pest or weed control at 125 g/ha ([4]; Preemergence, visual injury rating after approximately 10 d, read-out: Foxtail, Giant plant response rating (0 to 100 scale, 0 is no effect, 100 is complete control)): 60%; pest or weed control at 125 g/ha ([5]; Preemergence, visual injury rating after approximately 10 d, read-out: Pigweed plant response rating (0 to 100 scale, 0 is no effect, 100 is complete control)): 0%; pest or weed control at 125 g/ha ([6]; Preemergence, visual injury rating after approximately 10 d, read-out: Barnyardgrass plant response rating (0 to 100 scale, 0 is no effect, 100 is complete control)): 30%; pest or weed control at 500 g/ha ([9]; visual injury, 0 to 100 scale (0 no effect, 100 complete control), approx. 10 d, read-out: Plant response rating, Galium): 50%; pest or weed control at 500 g/ha (Kochia (Kochia scoparia) [10]; visual injury, 0 to 100 scale (0 no effect, 100 complete control), approx. 10 d, read-out: Plant response rating, Kochia): 20%
2 | Cc1ccc([C@H]2CNC(=O)[C@]2(Br)C(=O)Nc2cccc(F)c2F)cc1F (racemic) [Compound 1073] | 20% | 30% | 70% | 100% | 100% | 100% | 0% | 30% |  | 0% | 0% | 0% | 15% | 100% | 55% | 0% | 10% | 0% | 100% | 100% | pest or weed control at 125 g/ha [6, 28]: 100%; pest or weed control at 500 g/ha [7]: 40%; pest or weed control at 500 g/ha [8]: 30%; pest or weed control at 500 g/ha (Kochia (Kochia scoparia) [10]; [29]): 40%; plant injury at 500 g/ha [11]: 30%
3 | C/C=C/N1C[C@@H](c2cccc(C(F)(F)F)c2)[C@H](C(=O)Nc2ccccc2F)C1=O (racemic) [Compound 1094] | 0% | 0% | 0% | 100% | 0% | 80% | 0% | 0% | 20% | 0% | 20% | 0% | 0% | 0% | 45% | 0% | 0% | 0% | 90% | 0% | pest or weed control at 125 g/ha [6, 28]: 0%; pest or weed control at 500 g/ha [7]: 20%; pest or weed control at 500 g/ha [8]: 0%; pest or weed control at 500 g/ha ([9]; 0 to 100 scale, 0 is no effect, 100 is complete control, read-out: Galium plant response rating): 20%; pest or weed control at 500 g/ha (Kochia (Kochia scoparia) [10]; [29]): 0%; plant injury at 500 g/ha [11]: 30%
